Assay [1] relates to ARID1A-deficient lung cancers. Nature of the assay: Intervention in glycolysis in AAV9-CMV-Cre induced KP and KPAfl/fl mouse lung cancer models. It is filed as in vivo. To be noted: KPAfl/fl mice, AAV9-CMV-Cre induction. The text has this:
In Example 4 of the present invention, the biological mechanism of ARID1A deletion promoting lung cancer progression by increasing glycolysis levels was described. In this example, one or more strategies were used to intervene in glycolysis levels, and whether the method(s) could inhibit the progression of ARID1A-deficient lung cancers was observed. In one embodiment, the present invention used a clinical drug 2-DG to inhibit glucose metabolism levels, including glycolysis levels of tumor cells. In another embodiment, the present invention used lentivirus-mediated CRISPR/Cas9 to interfere with the expression of Pgam1 gene (pSECC-sgPgaml group), wherein the nucleotide sequences of the sgRNA were as shown in SEQ ID NO: 4 and SEQ ID NO: 5. In another embodiment, the present invention used lentivirus-mediated CRISPR/Cas9 to interfere with the expression of Pkm gene (pSECC-sgPkm group), wherein the nucleotide sequences of the […] were as shown in SEQ ID NO: 6 and SEQ ID NO: 7.
Firstly, 4-week-old KP and KPAfl/fl mouse systems were established. Secondly, AAV9-CMV-Cre virus induction was performed on mice. At the same time, lentivirus-mediated Cas9 and sgRNA were administered respectively to target a key gene Pgam1 or Pkm in glycolysis for intervention, with 2-DG drug treatment as another experimental group. […]

Assay [2] deals with KP and KPAfl/fl tumor-derived organoids. The assay is described as follows: Drug sensitivity of BET inhibitors on tumor-derived organoids. Type of assay: cell-based, mouse. The note with it: for number of organoids with increasing drug concentration: different drug concentrations. Here is the method: Firstly, lung tumor cells of KP and KPAfl/fl mice were taken for in vitro organoid culture and expansion, and drug sensitivity experiments of five widely used BET inhibitors were conducted on tumor-derived organoids (as shown in FIG. 7 panel A).

In assay [3] the test system is tumors with ARID1A knockout. The assay is described as follows: KP and KPAfl/fl tumor organoids xenotransplanted subcutaneously into C57 mice. Type of assay: in vivo, mouse. The note with it: subcutaneous organoid xenotransplant in C57 mice, volumes measured every 3 days. Here is the method:
During the experiment, tumor volumes were measured every 3 days.

In assay [4] the test system is ARID1A-deficient lung cancer cells. The assay is described as follows: Sensitivity to BETi small molecules in transgenic model mice (KP and KPAfl/fl groups). It is filed as in vivo, mouse. Here is the method:
Finally, the sensitivity of BETi small molecules to ARID1A-deficient cells was tested on transgenic model mice (KP and KPAfl/fl groups) (FIG. 7 panel D).

In assay [5] the test system is ARID1A-mutant ovarian cancers. To be noted: reported studies; cited from earlier work.

As to `O=CC[C@@H](O)[C@H](O)[C@H](O)CO` [2-DG, 2-deoxy-D-glucose], in assay [1], the “inhibition of tumor progression caused by the ARID1A deletion” value was “could to some extent inhibit tumor progression”.
Take `COc1cc2c(cc1-c1c(C)noc1C)ncc1[nH]c(=O)n([C@H](C)c3ccccn3)c12` [Bet151]: in assay [2] (7th day), the “number of organoids with increasing drug concentration” value was “the number of organoids decreased with the increase of drug concentration”.
As to `CC(=O)N1c2ccc(-c3ccc(C(=O)O)cc3)cc2[C@H](Nc2ccc(Cl)cc2)C[C@@H]1C` [Bet726], the “number of organoids with increasing drug concentration” value in assay [2] (7th day) is on record as “the number of organoids decreased with the increase of drug concentration”.
With `Cc1sc2c(c1C)C(c1ccc(Cl)cc1)=N[C@@H](CC(=O)OC(C)(C)C)c1nnc(C)n1-2` [JQ1], the “survival ability of ARID1A-deficient versus ARID1A wild-type tumor organoids” value in assay [2] is “greater damage to the survival ability of ARID1A-deficient tumor organoids than ARID1A wild-type organoids”. In addition, the “number of organoids with increasing drug concentration” value in assay [2] (7th day) is on record as “the number of organoids decreased with the increase of drug concentration”. Besides, the “formation of tumor-derived organoids, KPAfl/fl versus KP” value in assay [2] (concentrations of 10 μm and 50 μm, 7th day) is on record as “selectively impaired the formation of KPAfl/fl tumor-derived organoids”. In addition, the “sensitivity of ARID1A-deficient lung adenocarcinoma cells to BETi compounds” value in assay [2] (summary statement, compared with other BETi) is “more sensitive”. The “sensitivity by comparing tumor volumes and weights” value in assay [3] is given as “more sensitive”. For the same compound, in assay [4] (FIG. 7 summary), the “slowing of progression of ARID1A-deficient lung cancers (FIG. 7 legend)” value was “more prominent inhibitory effect”. The “sensitivity by comparing the number and area of tumors” value in assay [4] (transgenic KP and KPAfl/fl mice) is on record as “sensitive”. The “inhibitory effects on ARID1A-mutant ovarian cancers” value in assay [5] is “inhibitory effects on ARID1A-mutant ovarian cancers”.
For the compound `Cc1sc2c(c1C)C(c1ccc(Cl)cc1)=N[C@@H](CC(=O)Nc1ccc(O)cc1)c1nnc(C)n1-2` [OTX015, Birabresib], in assay [2] (7th day), the “number of organoids with increasing drug concentration” value is given as “the number of organoids decreased with the increase of drug concentration”.
